Reference: patent US20170252346A1, “PHARMACEUTICAL COMPOSITION FOR THE TREATMENT OF ACUTE TOOTH OR JAW PAIN” (SANOFI-AVENTIS DEUTSCHLAND GMBH, priority 2014, published 2017)

Tested on: patients with post-operative dental pain
Assay: Single-center, randomized, two-stage, parallel-group double-blind clinical study of single-dose efficacy and safety in post-operative dental pain
Assay type: in vivo, human
Conditions: ibuprofen 400 mg, caffeine 100 mg
Procedure: Clinical trials are performed in patients using the tablets produced according to example 1 and using the following study design:
Secondary goal: Evaluation of the efficacy and safety of multiple doses of the fixed combination compared with ibuprofen alone over a post-operative time period of 5 days (study stage 2).
Male and female patients between the ages of 18 and 55 years, scheduled for the extraction of 3 to 4 unsound wisdom teeth, with at least 2 extracted molars were recruited; the baseline of dental pain intensity must be at least moderate on a verbal evaluation scale and at least 5 on a numerical evaluation scale ranging from 0 to 10.
Following surgery, one tablet every 6-8 hours for 5 days has been administered.
The time-weighted sum of pain relief (PAR) and the difference in pain intensity (PID) from 0 to 8 hours (SPRID0-8H)
Secondary Endpoint • The time-weighted sum of PAR and PID from 0 to 2 hours (SPRID0-2H) • Duration of pain relief • Time to significant pain relief
The pain intensity (PI) was evaluated in a diary before administration and at 0.25, 0.5, 0.75, 1, 1.5, 2, 3, 4, 5, 6, 7 and 8 hours after the first dose of the study medication using an 11-point numerical rating scale (NPRS) from 0=“no pain” to 10=“worst possible pain”.
The pain relief (PAR) beginning from pain onset was evaluated in a patient diary using a 5-point rating scale (VRS) (0=no pain relief; 1=a little pain relief; 2=some pain relief; 3=much pain relief; 4=complete pain relief) at the same time points as for the PI evaluation.
As soon as a patient needed an emergency medication or a second dose of the medication within less than 8 hours, PI and PAR were evaluated before the emergency medication or second dose was administered.
The time-weighted sum of pain relief (PAR) and the pain intensity difference (PID) relative to baseline between 0 and 8 hours is determined as follows:
PID=PI at baseline−PI at the specific time point (here, higher PID values represent greater benefit for the patient).
Higher values of the SPRID0-8 h likewise indicate greater benefit for the patient.

[1] = Kaplan-Meyer analysis, single dose

CC(C)Cc1ccc(C(C)C(=O)O)cc1 (racemic) [Ibuprofen, (+/−) 2-(p-isobutylphenyl)-propionic acid]
Mean time to obtain relief (time to significant/meaningful pain relief) [1]: 2.5 h
Median duration of action [1]: 7.1 h
Adjusted Mean SPRID0-2h value (time-weighted sum of PAR and PID 0 to 2 hours after single dose): 6.990
Adjusted Mean SPRID0-8h value (time-weighted sum of pain relief (PAR) and pain intensity difference (PID) 0 to 8 hours after single dose, study stage 1): 40.165
